From paper PMC11620503 (Antimicrobial Agents and Chemotherapy, 2024)
Values after ≈ are worked out from the molar mass of the structure shown. Like-named read-outs stand apart in the source and are kept apart here.

Legend:
[1] = system: Enterobacter hormaechei ATCC BAA-2082; assay: MIC, reference strains of aerobic bacteria; format: cell-based; settings: ATCCBAA2082
[2] = system: Staphylococcus saprophyticus KUB4845; assay: MIC, reference strains of aerobic bacteria; format: cell-based
[3] = system: Klebsiella oxytoca KUB4313; assay: MIC, reference strains of aerobic bacteria; format: cell-based
[4] = system: Acinetobacter calcoaceticus NBRC12552 (ATCC 14987); assay: MIC, reference strains of aerobic bacteria; format: cell-based
[5] = system: Klebsiella aerogenes NCTC 10006 (ATCC 13048); assay: MIC, reference strains of aerobic bacteria; format: cell-based
[6] = system: Streptococcus pseudoporcinus ATCC BAA-1381; assay: MIC, reference strains of aerobic bacteria; format: cell-based; settings: ATCCBAA1381
[7] = system: Streptococcus porcinus ATCC 12391; assay: MIC, reference strains of aerobic bacteria; format: cell-based; settings: ATCC12391
[8] = system: E. coli CDC-137 (NDM-6), PBP3 mutations; assay: MIC, broth microdilution; format: cell-based; settings: Escherichia coli, fixed BLI concentration (μg/mL) in parentheses in label
[9] = system: 207 Enterobacterales including carbapenem-resistant isolates; assay: MIC, broth microdilution; format: cell-based
[10] = system: Streptococcus salivarius GTC215; assay: MIC, reference strains of aerobic bacteria; format: cell-based
[11] = system: Streptococcus mitis GTC495 (ATCC 49456); assay: MIC, reference strains of aerobic bacteria; format: cell-based; settings: ATCC49456
[12] = system: Staphylococcus aureus KUB4690/methicillin-resistant; assay: MIC, reference strains of aerobic bacteria; format: cell-based
[13] = system: Acinetobacter baumannii ATCC 19606; assay: MIC, reference strains of aerobic bacteria; format: cell-based; settings: ATCC19606
[14] = system: Streptococcus mutans GTC218; assay: MIC, reference strains of aerobic bacteria; format: cell-based
[15] = system: Klebsiella pneumoniae ATCC 700603; assay: MIC, reference strains of aerobic bacteria; format: cell-based; settings: ATCC700603
[16] = system: Escherichia coli ATCC 25922; assay: MIC, reference strains of aerobic bacteria; format: cell-based; settings: ATCC25922
[17] = system: Staphylococcus epidermidis KUB4871/methicillin-sensitive; assay: MIC, reference strains of aerobic bacteria; format: cell-based
[18] = system: 55 isolates of A. baumannii; assay: MIC, broth microdilution; format: cell-based, Acinetobacter baumannii
[19] = system: Citrobacter freundii ATCC 8090; assay: MIC, reference strains of aerobic bacteria; format: cell-based; settings: ATCC8090
[20] = system: Streptococcus agalactiae ATCC 13813; assay: MIC, reference strains of aerobic bacteria; format: cell-based; settings: ATCC13813
[21] = system: Proteus vulgaris ATCC 6380; assay: MIC, reference strains of aerobic bacteria; format: cell-based; settings: ATCC6380
[22] = system: serine-carbapenemase-producing isolates (Enterobacterales); assay: MIC, broth microdilution; format: cell-based; settings: for MIC50 / MIC90: fixed concentration (μg/mL) in label
[23] = system: MEM-nonsusceptible Enterobacterales with serine-carbapenemases; assay: MIC, broth microdilution; format: cell-based; settings: for CLSI MIC interpretation I (intermediate) / CLSI MIC interpretation R (resistant) / CLSI MIC interpretation S (susceptible): CLSI breakpoints, marked c: breakpoints for β-lactam alone; for MIC50 / MIC90: fixed concentration (μg/mL) in label
[24] = system: MEM-nonsusceptible Enterobacterales; assay: MIC, broth microdilution; format: cell-based; settings: for CLSI MIC interpretation I (intermediate) / CLSI MIC interpretation R (resistant) / CLSI MIC interpretation S (susceptible): CLSI breakpoints, marked c: breakpoints for β-lactam alone; for MIC50 / MIC90: fixed concentration (μg/mL) in label
[25] = system: Serratia marcescens NBRC 12648 (ATCC 14756); assay: MIC, reference strains of aerobic bacteria; format: cell-based
[26] = system: Staphylococcus epidermidis KUB4862/methicillin-resistant; assay: MIC, reference strains of aerobic bacteria; format: cell-based
[27] = cited from earlier work
[28] = system: Stenotrophomonas maltophilia KUB3619; assay: MIC, reference strains of aerobic bacteria; format: cell-based
[29] = system: Micrococcus luteus ATCC 9341; assay: MIC, reference strains of aerobic bacteria; format: cell-based; settings: ATCC9341
[30] = system: E. coli CDC-149 (NDM-7), PBP3 mutations; assay: MIC, broth microdilution; format: cell-based; settings: Escherichia coli
[31] = system: Enterococcus faecium NCTC 12204; assay: MIC, reference strains of aerobic bacteria; format: cell-based; settings: NCTC12204
[32] = system: Providencia rettgeri ATCC 9250; assay: MIC, reference strains of aerobic bacteria; format: cell-based; settings: ATCC9250
[33] = system: Streptococcus pneumoniae ATCC 49619; assay: MIC, reference strains of aerobic bacteria; format: cell-based; settings: ATCC49619
[34] = system: Moraxella catarrhalis ATCC 25238; assay: MIC, reference strains of aerobic bacteria; format: cell-based; settings: ATCC25238
[35] = All Enterobacterales (207), cefiderocol 205 isolates, CLSI breakpoints, marked c: breakpoints for β-lactam alone, tigecycline: FDA breakpoints
[36] = All Enterobacterales (207), cefiderocol 205 isolates, fixed concentration (μg/mL) in label
[37] = Acinetobacter baumannii (55), CLSI breakpoints, marked c: breakpoints for β-lactam alone
[38] = Enterobacterales with serine-carbapenemases (61), CDC AR Bank, CLSI breakpoints, marked c: breakpoints for β-lactam alone
[39] = Enterobacterales with serine-carbapenemases (61), CDC AR Bank
[40] = Enterobacterales with serine-carbapenemases (80), CLSI breakpoints, marked c: breakpoints for β-lactam alone, tigecycline: FDA breakpoints
[41] = MEM-nonsusceptible Enterobacterales with serine-carbapenemases (42), CDC AR Bank
[42] = MEM-nonsusceptible Enterobacterales with serine-carbapenemases (58), tigecycline: FDA breakpoints
[43] = MEM-nonsusceptible Enterobacterales (92), CDC AR Bank
[44] = MEM-nonsusceptible Enterobacterales (127), cefiderocol 126 isolates, tigecycline: FDA breakpoints

With C[C@@H](O)[C@H]1C(=O)N2C(C(=O)O)=C(S[C@@H]3CN[C@H](C(=O)N(C)C)C3)[C@H](C)[C@H]12 [MEM, meropenem] the MIC [1] was 4 µg/mL (≈ 10.4 µM), the MIC [2] was 0.12 µg/mL (≈ 0.313 µM) and the MIC [3] was ≤ 0.03 µg/mL. The MIC [4] was 0.12 µg/mL (≈ 0.313 µM), the MIC [5] was ≤ 0.03 µg/mL and the MIC [6] was ≤ 0.03 µg/mL. For the same compound, the MIC [7] was ≤ 0.03 µg/mL, the MIC [8] was 32 µg/mL (≈ 83.4 µM) and the “CLSI MIC interpretation I (intermediate)” value [9, 35] was 11.1%. For the same compound, the “CLSI MIC interpretation R (resistant)” value [9, 35] was 50.2%, the “CLSI MIC interpretation S (susceptible)” value [9, 35] was 38.6% and the MIC50 [9, 36] was 4 µg/mL (≈ 10.4 µM). For the same compound, the MIC90 [9, 36] was 32 µg/mL (≈ 83.4 µM), the MIC50 ([9]; read-out: MIC50) was 4 µg/mL (≈ 10.4 µM) and the MIC90 ([9]; read-out: MIC90) was 32 µg/mL (≈ 83.4 µM). For the same compound, the MIC [10] was ≤ 0.03 µg/mL, the MIC [11] was ≤ 0.03 µg/mL and the MIC [12] was 32 µg/mL (≈ 83.4 µM). For the same compound, the MIC [13] was 0.5 µg/mL (≈ 1.3 µM), the MIC [14] was ≤ 0.03 µg/mL and the MIC [15] was ≤ 0.03 µg/mL. The MIC [16] was ≤ 0.03 µg/mL, the MIC [17] was 0.06 µg/mL (≈ 0.156 µM) and the “CLSI MIC interpretation I (intermediate)” value [18, 37] was 5.5%. For the same compound, the “CLSI MIC interpretation R (resistant)” value [18, 37] was 89.1%, the “CLSI MIC interpretation S (susceptible)” value [18, 37] was 5.5% and the MIC50 ([18]; Acinetobacter baumannii (55), fixed concentration (μg/mL) in label) was 32 µg/mL (≈ 83.4 µM). The MIC50 ([18]; Acinetobacter baumannii, read-out: MIC50) was 32 µg/mL (≈ 83.4 µM), the MIC [19] was ≤ 0.03 µg/mL and the MIC [20] was ≤ 0.03 µg/mL. The MIC [21] was ≤ 0.03 µg/mL, the “CLSI MIC interpretation R (resistant)” value [22, 38] was 57.4% and the “CLSI MIC interpretation S (susceptible)” value [22, 38] was 31.1%. For the same compound, the MIC50 [22, 39] was 4 µg/mL (≈ 10.4 µM), the MIC90 [22, 39] was 32 µg/mL (≈ 83.4 µM) and the “CLSI MIC interpretation I (intermediate)” value [22, 40] was 11.3%. For the same compound, the “CLSI MIC interpretation R (resistant)” value [22, 40] was 61.3%, the “CLSI MIC interpretation S (susceptible)” value [22, 40] was 27.5% and the MIC50 ([22]; Enterobacterales with serine-carbapenemases (80), read-out: MIC50) was 4 µg/mL (≈ 10.4 µM). The MIC90 ([22]; Enterobacterales with serine-carbapenemases (80), read-out: MIC90) was 32 µg/mL (≈ 83.4 µM), the “CLSI MIC interpretation I (intermediate)” value [23, 41] was 16.7% and the “CLSI MIC interpretation R (resistant)” value [23, 41] was 83.3%. The “CLSI MIC interpretation S (susceptible)” value [23, 41] was 0%, the MIC50 [23, 41] was 8 µg/mL (≈ 20.9 µM) and the MIC90 [23, 41] was 32 µg/mL (≈ 83.4 µM). For the same compound, the “CLSI MIC interpretation I (intermediate)” value [23, 42] was 15.5%, the “CLSI MIC interpretation R (resistant)” value [23, 42] was 84.5% and the “CLSI MIC interpretation S (susceptible)” value [23, 42] was 0%. For the same compound, the MIC50 ([23]; MEM-nonsusceptible Enterobacterales with serine-carbapenemases (58), read-out: MIC50) was 8 µg/mL (≈ 20.9 µM), the MIC90 ([23]; MEM-nonsusceptible Enterobacterales with serine-carbapenemases (58), read-out: MIC90) was 32 µg/mL (≈ 83.4 µM) and the “CLSI MIC interpretation I (intermediate)” value [24, 43] was 16.3%. For the same compound, the “CLSI MIC interpretation R (resistant)” value [24, 43] was 83.7%, the “CLSI MIC interpretation S (susceptible)” value [24, 43] was 0% and the MIC50 [24, 43] was 8 µg/mL (≈ 20.9 µM). For the same compound, the MIC90 [24, 43] was >32 µg/mL, the “CLSI MIC interpretation I (intermediate)” value [24, 44] was 18.1% and the “CLSI MIC interpretation R (resistant)” value [24, 44] was 81.9%. The “CLSI MIC interpretation S (susceptible)” value [24, 44] was 0%, the MIC50 ([24]; MEM-nonsusceptible Enterobacterales (127), cefiderocol 126 isolates, read-out: MIC50) was 8 µg/mL (≈ 20.9 µM) and the MIC90 ([24]; MEM-nonsusceptible Enterobacterales (127), cefiderocol 126 isolates, read-out: MIC90) was > 32 µg/mL. The MIC [25] was ≤ 0.03 µg/mL, the MIC [26] was 4 µg/mL (≈ 10.4 µM) and the human protein binding [27] was 2%. The MIC [28] was > 32 µg/mL, the MIC [29] was 0.06 µg/mL (≈ 0.156 µM) and the MIC [30] was 8 µg/mL (≈ 20.9 µM). It also gave an MIC [31] of 32 µg/mL (≈ 83.4 µM), an MIC [32] of 0.06 µg/mL (≈ 0.156 µM) and an MIC [33] of 0.06 µg/mL (≈ 0.156 µM). The MIC [34] was ≤ 0.03 µg/mL.

In the case of N[C@@H](C(=O)N1CC(Oc2ccc3c(c2C(=O)O)OB(O)CC3)C1)c1c[nH]cn1 [KSP-1007, 7-({1-[(2R)-2-amino-2-(1H-imidazol-4-yl)acetyl]azetidin-3-yl}oxy)-2-hydroxy-3,4-dihydro-2H-1,2-benzoxaborinine-8-carboxylic acid], the MIC [1] is reported as > 128 µg/mL, the MIC [2] is reported as 4 µg/mL (≈ 10.4 µM) and the MIC [3] is reported as 128 µg/mL (≈ 331 µM). For the same compound, the MIC [4] was > 128 µg/mL, the MIC [5] was > 128 µg/mL and the MIC [6] was 1 µg/mL (≈ 2.59 µM). The MIC [7] was 2 µg/mL (≈ 5.18 µM), the MIC [10] was 0.25 µg/mL (≈ 0.647 µM) and the MIC [11] was 4 µg/mL (≈ 10.4 µM). The MIC [12] was > 128 µg/mL, the MIC [13] was > 128 µg/mL and the MIC [14] was 8 µg/mL (≈ 20.7 µM). For the same compound, the MIC [15] was > 128 µg/mL, the MIC [16] was 128 µg/mL (≈ 331 µM) and the MIC [17] was 4 µg/mL (≈ 10.4 µM). The MIC [19] was 128 µg/mL (≈ 331 µM), the MIC [20] was 4 µg/mL (≈ 10.4 µM) and the MIC [21] was > 128 µg/mL. The MIC [25] was > 128 µg/mL, the MIC [26] was > 128 µg/mL and the “human plasma protein binding rate” value [27] was “about 75%”. The MIC [28] was > 128 µg/mL, the MIC [29] was 128 µg/mL (≈ 331 µM) and the MIC [31] was > 128 µg/mL. For the same compound, the MIC [32] was > 128 µg/mL, the MIC [33] was 2 µg/mL (≈ 5.18 µM) and the MIC [34] was 64 µg/mL (≈ 166 µM).
